Laboratory results as given in patent US5618675A, “Methods and compositions for detecting lipopolysaccharides using CAP18 fragments” (Panorama Research, Inc., dated 1997).

Tests used:
ddY mice = assay: Tissue factor lethality model; type: in vivo; conditions: for Survival (%) / No. of Mice (dead/total) / Survival time: Tissue factor 1.0 mg/mouse IV; for Survival (%): control 0; for No. of Mice (dead/total): control 7/7; for Survival time: control 187 ± 70
Method: Reference tissue factor (Simplastin, 1 mg/mouse) was IV injected into ddY mice (male, 20-week-old, 38-45 g) incubated with or without peptide.
The anticoagulant activity of the RNIP peptides was studied in an acute animal model. Direct injection of tissue factor IV (Simplastin, 1 mg/mouse) produces acute intravascular coagulation and death within three minutes.
^a Tissue factor (Simplastin, 10 mg/ml was mixed with equal volume of
synthetic peptide 100 μg/ml or 50 μg/ml and 0.2 ml of the mixture
injected IV. ddY mice (20 weeks, 38-45 gm).

RAW 264.7 cells = assay: Reversal of LPS-induced inhibition of RAW 264.7 cell proliferation; type: cell-based, murine; conditions: 5 ng/ml of LPS; FIG. 8
Method: When LPS is added to RAW 264.7 cells it causes a dose-dependent inhibition of proliferation with differentiation of the cells into a macrophage phenotype.

[1] = tested on: thioglycolate elected murine peritoneal exudate cells; assay: RNI generation by thioglycolate-elicited peritoneal exudate cells; type: cell-based; conditions: for RNI (reactive nitrogen intermediate): RNIP 50 nm
Method: From the sequence of the CAP18 cDNA, it was apparent that the putative N-terminal peptide of CAP18 was in fact an internal fragment of the CAP18 protein. We therefore tried to reconfirm the original protein sequence. Neutrophil-derived heparin bound cationic proteins were prepared as described above and applied to a C18 reverse phase HPLC (FIG. 1). We sequenced the major peaks. Peaks at fractions 14.5 and 15.2 correspond to defensins MCP1 and MCP2 (Territo et al. (1989) J. Clin. Invest. 84:2017-2019), respectively. Fraction 25.8 is macrophage related protein 14 (MRP14) (Odink et al. (1987) Nature 330:80-82). The fraction at 20.3 minutes corresponds to a fragment of CAP18 of approximately 4-5 kD. […] The murine macrophage cell line RAW 264.7 (obtained from ATCC) and thioglycolate-elicited murine peritoneal exudate cells are used to produce RNI. Cells are cultured at 1×10^6 /ml. in RPMI-1640 +2.5% FCS in 24 well plates in the presence or absence of different concentrations of LPS or murine rlFNγ. After 24 hr. incubation at 37° C. the cell free supernatant is collected and tested for the presence of RNI. Accumulation of nitrite in the medium is measured by a colorimetric assay based on the Griess reaction (Green et al. (1982) Anal. Biochem. 126:11) using sodium nitrite as standards. Sample (50 μl) is mixed with 50 μl of Griess reagent (1% sulfanilamide, 0.1% naphthalene diamine dihydrochloride, 2.5% H3 PO4) and after 10 min. at room temperature absorbance is read at 570 nm.

human mononuclear cells = assay: LPS-induced tissue factor by human mononuclear cells; type: cell-based; conditions: for Δ Units (%): LPS alone 100, 960 min
Method: Human mononuclear cells were separated from citrated peripheral blood by centrifugation over Sodium-metrizoate-Ficoll (lymphocyte Separation Medium, Japan Antibody Institute, Gumma). The resulting mixed mononuclear cell suspension was washed 3 times with RPMI 1640 media. Cell suspension (1×10^6 /ml) was stimulated with LPS for 16 to 18 hr.
Veronal buffered saline (VBS) was added to the cell pellet, lysed by 3 cycles of freeze/thaw and sonicated for 10 sec with a hand-held sonicator microbe (Handy Sonic, model UR-20P, Tomy Seiko LTD, Tokyo). Tissue factor activity was tested in modified unactivated partial thromboplastin time (7). One tenth ml of cell lysate (1×10^6 /ml) was preincubated with mouse plasma at 37° C. for 3 min. Then 0.1 ml of 25 mM-CaCl2 which contains phospholipid was added to the mixture and clotting time was measured using a fibrometer (Bio Quest Division, Becton Dickinson, Cokeysville, USA). A standard curve obtained from serial two-fold dilutions of rabbit brain thromboplastic (Simplastin, Ono Pharmaceutical Co.) was used to transpose tissue factor activity into arbitrary tissue factor units (1 μg/ml) suspension of rabbit brain was assigned a value of 1,000 units).
The mean tissue factor units+standard error was determined from three to four samples. Student's t test for unpair data was used to determine the statistically significant differences. A two-tailed P value of <0.05 was considered significant.
S. minnesota SmoothLPS (2 μg/ml) was preincubated with equal volume of
each LPSbinding protein (28HA) at 37° C. for 45 minutes, and the
mixture was added to the cells and cultured for 16 hours.

[2] = tested on: E. coli 09:K39 K^- strain; assay: Antibacterial CFU assay; conditions: FIG. 6H
E. coli (HB101) = assay: Bacterial proliferation, 3H-thymidine incorporation; type: cell-based
Method: Bacteria were grown in trypticase broth overnight.
To corroborate the anti-bacterial activity shown in the CFU assays, inhibition of proliferation of bacteria was tested directly using a ^3 H-thymidine incorporation assay. […] In summary although there is some strain to strain variation in the IC50, all of the Gram-negativestrains tested in two different types of assays were sensitive to these anti-microbial peptides.

[3] = first experiment, LPS 0.1 μg/ml
[4] = second experiment, LPS 0.1 μg/ml

“RNIP: reactive nitrogen inhibitory protein, amino acids 135-171 of SEQ ID NO:4 (rabbit CAP18 C-terminus); purified from granulocytes or synthetic (#197) (GLRKRLRKFRNKIKEKLKKIGQKIQGLLPKLAPRTDY)” was tested, and the “Survival (%)” value (ddY mice; Peptide #197 5 μg/mouse) was 43%, the “No. of Mice (dead/total)” value (ddY mice; Peptide #197 5 μg/mouse) was 4/7 and the “Survival time” value (ddY mice; Peptide #197 5 μg/mouse) was 228 ± 48 s. The “Survival (%)” value (ddY mice; Peptide #197 10 μg/mouse, p < 0.05) was 57%, the “No. of Mice (dead/total)” value (ddY mice; Peptide #197 10 μg/mouse) was 3/7 and the “Survival time” value (ddY mice; Peptide #197 10 μg/mouse) was 305 s. The reduction of mortality (ddY mice; tissue factor IV 1 mg/mouse) was 57%, the “effect on LPS-induced inhibition of proliferation” value (RAW 264.7 cells) was “reverses the inhibition of proliferation” and the “RNI (reactive nitrogen intermediate)” value ([1]; IFN 500 U/ml, without RNIP 4.0 ± 0.8) was 1.1 µM. The “RNI (reactive nitrogen intermediate)” value ([1]; LPS + IFNγ 1 ng + 500 U/ml, without RNIP 26 ± 0.6) was 14 ± 0.7 µM, the IC50 ([1]; read-out: IC50 for inhibition of gamma interferon stimulated nitrogen radical release) was < 50 nM and the “Inhibition (%)” value (human mononuclear cells; [3]) was 51%. The “Tissue Factor, figure in parentheses (relative to unstimulated = 1.0)” value (“Tissue Factor … (relative to unstimulated = 1.0)” below) (human mononuclear cells; first experiment, LPS 0.1 μg/ml, LPS alone 16.6) was 9.0, the “Δ Units (%)” value (human mononuclear cells; [3]) was 49% and the “Δ Units” value (human mononuclear cells; first experiment, LPS 0.1 μg/ml, LPS alone 17118) was 8342. For the same substance, the “Tissue Factor” value (human mononuclear cells; first experiment, LPS 0.1 μg/ml, LPS alone 18214 ± 4192, RNIP 2 HA units, CAP-18 1 HA unit) was 9438 ± 293 Units × 10^3 /3.6 × 10^4 cells, the “Inhibition (%)” value (human mononuclear cells; [4]) was 41% and the “Tissue Factor … (relative to unstimulated = 1.0)” value (human mononuclear cells; second experiment, LPS 0.1 μg/ml, LPS alone 14.7) was 9.0. For the same substance, the “Δ Units (%)” value (human mononuclear cells; [4]) was 59%, the “Δ Units” value (human mononuclear cells; second experiment, LPS 0.1 μg/ml, LPS alone 6726) was 3950 and the “Tissue Factor” value (human mononuclear cells; second experiment, LPS 0.1 μg/ml, LPS alone 7218 ± 264, HA units HP-1 4, HP-2 2, RNIP 2, CAP-18 1) was 4442 ± 982 Units × 10^3 /3.6 × 10^4 cells. For the same substance, the “Tissue Factor … (relative to unstimulated = 1.0)” value (human mononuclear cells; second experiment, no LPS) was 1.3, the “Δ Units” value (human mononuclear cells; second experiment, no LPS) was 144 and the “Tissue Factor” value (human mononuclear cells; second experiment, no LPS, unstimulated 492 ± 75) was 636 ± 141 Units × 10^3 /3.6 × 10^4 cells. The “anti-bacterial IC50” value [2] was 0.68 µg/mL, the IC50 ([2]; read-out: anti-bacterial IC50) was 110 nM and the “Percent inhibition of proliferation” value (E. coli (HB101); RNIP 1.25 μg/ml) was 88%. For the same substance, the “Percent inhibition of proliferation” value (E. coli (HB101); RNIP 2.5 μg/ml) was 99%, the “Inhibition (%) of proliferation” value (E. coli (HB101); RNIP 2.5 μg/ml, FCS 0 %) was 94 ± 10.3% and the “Inhibition (%) of proliferation” value (E. coli (HB101); RNIP 2.5 μg/ml, FCS 1 %) was 91 ± 10.9%. For the same substance, the “Inhibition (%) of proliferation” value (E. coli (HB101); RNIP 2.5 μg/ml, FCS 5 %) was 87 ± 3.1%, the “Inhibition (%) of proliferation” value (E. coli (HB101); RNIP 2.5 μg/ml, FCS 10 %) was 78 ± 5.5% and the “Percent inhibition of proliferation” value (E. coli (HB101); RNIP 5.0 μg/ml) was 99%. The “Percent inhibition of proliferation” value (E. coli (HB101); RNIP 6 μg/ml (so in the source)) was 81%.
